Laboratory results: US20240092745A1, “DRUGS AND COMPOSITIONS FOR THE TREATMENT OF OCULAR DISORDERS” (Graybug Vision, Inc., priority 2017, published 2024)
Values after ≈ are worked out from the molar mass of the structure shown. Structures can show the parent of a compound that is named as a salt. Where two headings read alike, the source gives them in different places.

Experiment: Determination of drug solubility in aqueous and organic solvent;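 note: solid drug suspended at 50 mg/mL nominal in each solvent, vortexed and sonicated, then dissolved concentration in filtered supernatant quantified by HPLC against a calibration curve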
Format: physicochemical
Conditions: for solubility: thermodynamic from solid
[1] = organic solvent or mixture, Table 3A, DMSO, read-out: Solubility DMSO
[2] = Table 3A, water, drug added to 50 mg/mL, read-out: Solubility Water
[3] = organic solvent or mixture, Table 3A, DCM, read-out: Solubility DCM
[4] = organic solvent or mixture, Table 3B, DMSO, read-out: Solubility DMSO
[5] = Table 3B, water, drug added to 50 mg/mL, read-out: Solubility Water

Method: For each test, approximately 5-10 mg was transferred to a 10 mL glass vial. Aqueous or organic solvent was added to each vial to achieve an overall concentration of 50 mg/mL. After vortexing aggressively for 2-3 minutes and sonicating in a bath sonicator for 5 minutes, undissolved drug was spun down at 1200 rpm for 5 minutes to generate a pellet. The supernatant was collected and filtered through a 0.2 μm nylon syringe filter into HPLC vials for drug content analysis. Drug concentration was determined by comparing against a standard calibration curve.

Compound	solubility [1]	solubility [2]	solubility [4]	solubility [5]	also measured
CCN(CC)CCNC(=O)c1c(C)[nH]c(/C=C2\C(=O)Nc3ccc(N)cc32)c1C [5-Amino Sunitinib, 5-[5-Amino-2-oxo-1,2-dihydro-indol-(3Z)-ylidenemethyl]-2,4-dimethyl-1H-pyrrole-3-carboxylic acid (2-diethylamino-ethyl)-amide, reference compound]	> 50 mg/mL	< 1 mg/mL			
CCN[C@H]1CN(CCCOC)S(=O)(=O)c2sc(S(N)(=O)=O)cc21 [Brinzolamide, reference compound]	> 50 mg/mL	< 1 mg/mL			Solubility DCM (Table 3B, DCM): <7.5 mg/mL; Solubility DMSO (Table 3B, DMSO): >50 mg/mL; Solubility Water (Table 3B, water, drug added to 50 mg/mL): <1.0 mg/mL; solubility [3]: < 7.5 mg/mL
CCCCCCCCCCCCCCCCCC(=O)O[C@@H](C)C(=O)O[C@@H](C)C(=O)O[C@@H](C)C(=O)O[C@@H](C)C(=O)NS(=O)(=O)c1cc2c(s1)S(=O)(=O)C(C)CC2NCC (stereo partly drawn) [Compound 12-3, Octadecanoic acid (S)-1-((S)-1-{(S)-1-[(S)-2-(4-ethylamino-6-methyl-7,7-dioxo-4,5,6,7-tetrahydro-7λ*6*-thieno[2,3-b]thiopyran-2-sulfonylamino)-1-methyl-2-oxo-ethoxycarbonyl]-ethoxycarbonyl}-ethoxycarbonyl)-ethyl ester]	> 50 mg/mL	< 0.1 mg/mL			solubility [3]: > 50 mg/mL
CCCCCCCCCCCCCCCCCC(=O)O[C@@H](C)C(=O)O[C@@H](C)C(=O)O[C@@H](C)C(=O)O[C@@H](C)C(=O)NS(=O)(=O)c1cc2c(s1)S(=O)(=O)N(CCCOC)CC2NCC (stereo partly drawn) [Compound 15-2, Octadecanoic acid (S)-1-[(S)-1-((S)-1-{(S)-2-[4-ethylamino-2-(3-methoxy-propyl)-1,1-dioxo-1,2,3,4-tetrahydro-1λ*6*-thieno[3,2-e][1,2]thiazine-6-sulfonylamino]-1-methyl-2-oxo-ethoxycarbonyl}-ethoxycarbonyl)-ethoxycarbonyl]-ethyl ester]	> 50 mg/mL	< 1 mg/mL			
CC(=O)O[C@@H](C)C(=O)O[C@@H](C)C(=O)N1CCN=C1Nc1ccc2nccnc2c1Br [Compound 25-2, (S)-2-Acetoxy-propionic acid (S)-2-[2-(5-bromo-quinoxalin-6-ylamino)-4,5-dihydro-imidazol-1-yl]-1-methyl-2-oxo-ethyl ester]	> 50 mg/mL	< 1 mg/mL			
CC(=O)O[C@@H](C)C(=O)O[C@@H](C)C(=O)O[C@@H](C)C(=O)N1CCN=C1Nc1ccc2nccnc2c1Br [Compound 26-2, (S)-2-((S)-2-Acetoxy-propionyloxy)-propionic acid (S)-2-[2-(5-bromo-quinoxalin-6-ylamino)-4,5-dihydro-imidazol-1-yl]-1-methyl-2-oxo-ethyl ester]	> 50 mg/mL	< 1 mg/mL			
CC(=O)O[C@@H](C)C(=O)O[C@@H](C)C(=O)O[C@@H](C)C(=O)O[C@@H](C)C(=O)N1CCN=C1Nc1ccc2nccnc2c1Br [Compound 27-2, (S)-2-[(S)-2-((S)-2-Acetoxy-propionyloxy)-propionyloxy]-propionic acid (S)-2-[2-(5-bromo-quinoxalin-6-ylamino)-4,5-dihydro-imidazol-1-yl]-1-methyl-2-oxo-ethyl ester]	> 50 mg/mL	< 1 mg/mL			
CCCCCCCCCCCCCCCCCC(=O)O[C@@H](C)C(=O)O[C@@H](C)C(=O)O[C@@H](C)C(=O)O[C@@H](C)C(=O)N1CCN=C1Nc1ccc2nccnc2c1Br [Compound 29-2, Octadecanoic acid (S)-1-[(S)-1-((S)-1-{(S)-2-[2-(5-bromo-quinoxalin-6-ylamino)-4,5-dihydro-imidazol-1-yl]-1-methyl-2-oxo-ethoxycarbonyl}-ethoxycarbonyl)-ethoxycarbonyl]-ethyl ester]	> 50 mg/mL	< 1 mg/mL			
CC(=O)O[C@@H](CNC(C)(C)C)COc1nsnc1N1CCOCC1.O=C(O)/C=C\C(=O)O [Compound 35-4, Acetic acid (S)-1-(tert-butylamino-methyl)-2-(4-morpholin-4-yl-[1,2,5]thiadiazol-3-yloxy)-ethyl ester maleate]	> 50 mg/mL	< 1 mg/mL			
CCCCCCCCCCCCCCCCCC(=O)O[C@@H](C)C(=O)O[C@@H](C)C(=O)O[C@@H](C)C(=O)O[C@@H](C)C(=O)O[C@@H](C)C(=O)O[C@@H](C)C(=O)O[C@@H](CNC(C)(C)C)COc1nsnc1N1CCOCC1 [Compound 42-2, Octadecanoic acid (S)-1-((S)-1-{(S)-1-[(S)-1-((S)-1-{(S)-1-[(S)-1-(tert-butylamino-methyl)-2-(4-morpholin-4-yl-[1,2,5]thiadiazol-3-yloxy)-ethoxycarbonyl]-ethoxycarbonyl}-ethoxycarbonyl)-ethoxycarbonyl]-ethoxycarbonyl}-ethoxycarbonyl)-ethyl ester maleate]	> 50 mg/mL	< 1 mg/mL			
CCCCCCCCCCCCCCCCCC(=O)O[C@@H](C)C(=O)O[C@@H](C)C(=O)O[C@@H](C)C(=O)O[C@@H](C)C(=O)O[C@@H](C)C(=O)O[C@@H](C)C(=O)O[C@@H](CNC(C)(C)C)COc1nsnc1N1CCOCC1.Cl [Compound 43-1, Octadecanoic acid (5)-1-((S)-1-{(S)-1-[(S)-1-((S)-1-{(S)-1-[(S)-1-(tert-butylamino-methyl)-2-(4-morpholin-4-yl-[1,2,5]thiadiazol-3-yloxy)-ethoxycarbonyl]-ethoxycarbonyl}-ethoxycarbonyl)-ethoxycarbonyl]-ethoxycarbonyl}-ethoxycarbonyl)-ethyl ester hydrochloride]					Solubility DMSO (Table 3A, DMSO): >50 mg/mL; Solubility Water (Table 3A, water, drug added to 50 mg/mL): 6.25 mg/mL; aqueous solubility (aqueous solution): 6.25 mg/mL

The next lines start with results.

solubility [1]	solubility [2]	solubility [4]	solubility [5]	Compound	also measured
> 50 mg/mL	< 1 mg/mL			CC(C)(C)NC[C@@H](COc1nsnc1N1CCOCC1)OC(=O)OC(C)(C)C [Compound 36-2, Carbonic acid tert-butyl ester (S)-1-(tert-butylamino-methyl)-2-(4-morpholin-4-yl-[1,2,5]thiadiazol-3-yloxy)-ethyl ester]	
> 50 mg/mL	< 1 mg/mL			CC(=O)N(C[C@@H](COc1nsnc1N1CCOCC1)OC(=O)OC(C)(C)C)C(C)(C)C [Compound 37-2, Timolol-O-Boc-N-acetate]	
> 50 mg/mL	< 1 mg/mL			CC(=O)O[C@H](C)C(=O)O[C@@H](CNC(C)(C)C)COc1nsnc1N1CCOCC1.O=C(O)/C=C\C(=O)O [Compound 44-2, Timolol-acetyl PLA (n=1) maleate]	
		> 100 mg/mL	< 1 mg/mL	CC/C=C\C/C=C\C/C=C\C/C=C\C/C=C\C/C=C\CCC(=O)O[C@@H](CNC(C)(C)C)COc1nsnc1N1CCOCC1.O=C(O)/C=C\C(=O)O [Compound 53-3, (4Z,7Z,10Z,13Z,16Z,19Z)-Docosa-4,7,10,13,16,19-hexaenoic acid (S)-1-(tert-butylamino-methyl)-2-(4-morpholin-4-yl-[1,2,5]thiadiazol-3-yloxy)-ethylester maleate]	
		> 100 mg/mL	< 1 mg/mL	CCCCCCCCCCCCCCCCCC(=O)O[C@@H](C)C(=O)O[C@@H](C)C(=O)O[C@H](COc1nsnc1N1CCOCC1)CN(C(C)=O)C(C)(C)C [Compound 66-1, N-Acyl-Timolol-PLA (n = 2) Stearate]	
		70 mg/mL (≈ 76.7 mM)	< 1 mg/mL	CCCCCCCCCCCCCCCCCC(=O)O[C@@H](C)C(=O)O[C@@H](C)C(=O)O[C@@H](C)C(=O)O[C@@H](C)C(=O)O[C@H](COc1nsnc1N1CCOCC1)CN(C(C)=O)C(C)(C)C [Compound 67-1, N-Acyl-Timolol-PLA (n = 4) Stearate]	
		> 100 mg/mL	< 1 mg/mL	CC/C=C\C/C=C\C/C=C\C/C=C\C/C=C\C/C=C\CCC(=O)O[C@H](COc1nsnc1N1CCOCC1)CN(C(C)=O)C(C)(C)C [Compound 68-1, N-Acyl-Timolol-DHA]	
		> 100 mg/mL	< 6.3 mg/mL	CC(=O)N(C[C@@H](COc1nsnc1N1CCOCC1)OC(=O)[C@H](C)OC(=O)[C@H](C)O)C(C)(C)C [Compound 69-1]	
		> 50 mg/mL	> 25 mg/mL	CCCCC/C=C\C/C=C\CCCCCCCC(=O)O[C@@H](CNC(C)(C)C)COc1nsnc1N1CCOCC1.Cl [Compound 71-1, Timolol-O-Linoleic Acid-HCl]	
		> 100 mg/mL	< 1 mg/mL	CC(C)(C)NC[C@@H](COc1nsnc1N1CCOCC1)OC(=O)CCCCCCCCC(=O)O[C@@H](CNC(C)(C)C)COc1nsnc1N1CCOCC1.O=C(O)/C=C\C(=O)O [Compound 75-1, Timolol-Sebacic Acid-Timolol Maleate]	
		> 100 mg/mL	> 6.25 mg/mL	CC(C)(C)NC[C@@H](COc1nsnc1N1CCOCC1)OC(=O)CCC(=O)O[C@@H](CNC(C)(C)C)COc1nsnc1N1CCOCC1.O=C(O)/C=C\C(=O)O [Compound 76-4, Timolol-succinic acid-Timolol-maleate]	
		> 100 mg/mL	< 1 mg/mL	CC(C)(C)NC[C@@H](COc1nsnc1N1CCOCC1)OC(=O)CCCC(=O)O[C@@H](CNC(C)(C)C)COc1nsnc1N1CCOCC1.O=C(O)/C=C\C(=O)O [Compound 77-1, Timolol-glutaric acid-Timolol-maleate]	
		> 100 mg/mL	< 1 mg/mL	CC(C)(C)NC[C@@H](COc1nsnc1N1CCOCC1)OC(=O)/C=C/C(=O)O[C@@H](CNC(C)(C)C)COc1nsnc1N1CCOCC1.O=C(O)/C=C\C(=O)O.O=C(O)/C=C\C(=O)O [Compound 78-1, Timolol-fumurate-Timolol-maleate]	
		> 100 mg/mL	< 1 mg/mL	CC/C=C\C/C=C\C/C=C\C/C=C\C/C=C\C/C=C\CCC(=O)NS(=O)(=O)c1cc2c(s1)S(=O)(=O)[C@@H](C)C[C@@H]2NCC [Compound 80-3, (4S,6S)-4-Ethylamino-6-methyl-7,7-dioxo-4,5,6,7-tetrahydro-7lambda*6*-thieno[2,3-b]thiopyran-2-sulfonic acid ((4Z,7Z,10Z,13Z,16Z,19Z)-docosa-4,7,10,13,16,19-hexanoyl)-amide]	solubility (organic solvent or mixture, Table 3B, DCM, read-out: Solubility DCM): > 50 mg/mL
